Values after ≈ are worked out from the molar mass of the structure shown.
Tested on: VISA clinical isolates of MRSA (VI-MRSA) and of MSSA (VI-MSSA)
Assay: microbe, parasite or virus in culture
Type: cell-based, Staphylococcus aureus
Experimental: Each of the bacterial strains listed in Table 1-1 was shake-cultured at 37° C. overnight in 4 mL of a medium (Tryptical Soy Broth: TSB, product of Becton Dickinson and Company). FDA209P was used as a control.
After completion of culturing, the resultant culture was suspended in a cation-adjusted Mueller Hinton Broth (CAMHB, product of Becton Dickinson and Company). Then, the obtained bacterial culture was adjusted in absorbance with the CAMHB so that the absorbance at 578 nm of the bacterial culture was adjusted to 0.3 measured by an absorption spectrometer. In addition, the resultant bacterial culture was 500-fold diluted with the CAMHB.
Each of the 500-fold diluted, pre-cultured bacterial cultures was added at 50 μL/well to the CAMHB containing the quinolones and the nybomycins at various concentrations (50 μL/well), followed by statically culturing at 37° C. overnight.
After completion of culturing, the growth of the bacteria was visually determined based on turbidity to measure MIC in each bacterial strain.
Here, the glycopeptides used were VCM and TEIC. The β-lactam used was OXA.

[1] = Staphylococcus aureus, 99/3700-W, VI-MRSA, The United Kingdom
[2] = Staphylococcus aureus, 99/3759-V, VI-MRSA, The United Kingdom
[3] = Staphylococcus aureus, 28160, VI-MRSA, South African Republic
[4] = Staphylococcus aureus, 98141, VI-MRSA, France
[5] = Staphylococcus aureus, A7 (JCSC4842), VI-MRSA, Taiwan
[6] = Staphylococcus aureus, AMC11094, VI-MRSA, Korea
[7] = Staphylococcus aureus, B7 (JCSC4852), VI-MRSA, Taiwan
[8] = Staphylococcus aureus, BR1, VI-MRSA, Brazil
[9] = Staphylococcus aureus, BR2, VI-MRSA, Brazil
[10] = Staphylococcus aureus, BR3, VI-MRSA, Brazil
[11] = Staphylococcus aureus, BR4, VI-MRSA, Brazil
[12] = Staphylococcus aureus, BR5, VI-MRSA, Brazil
[13] = Staphylococcus aureus, HIP06297, VI-MRSA, America
[14] = Staphylococcus aureus, HIP06854, VI-MRSA, America
[15] = Staphylococcus aureus, HIP07920, VI-MRSA, America
[16] = Staphylococcus aureus, HIP07930, VI-MRSA, America
[17] = Staphylococcus aureus, HIP08926, VI-MRSA, America
[18] = Staphylococcus aureus, HIP09143, VI-MRSA, America
[19] = Staphylococcus aureus, HIP09313, VI-MRSA, America
[20] = Staphylococcus aureus, HIP09433, VI-MRSA, America
[21] = Staphylococcus aureus, HIP09662, VI-MRSA, America
[22] = Staphylococcus aureus, HIP09735, VI-MRSA, America
[23] = Staphylococcus aureus, HIP09737, VI-MSSA, America
[24] = Staphylococcus aureus, HIP09740, VI-MRSA, America
[25] = Staphylococcus aureus, HIP10267, VI-MRSA, America
[26] = Staphylococcus aureus, HIP10540, VI-MRSA, America
[27] = Staphylococcus aureus, HIP12864, VI-MRSA, America
[28] = Staphylococcus aureus, HIP13036, VI-MRSA, America
[29] = Staphylococcus aureus, HIP13057, VI-MRSA, America
[30] = Staphylococcus aureus, IL (HIP7737), VI-MRSA, America
[31] = Staphylococcus aureus, JCSC7193, VI-MRSA, Thailand
[32] = Staphylococcus aureus, JCSC7195, VI-MRSA, Thailand
[33] = Staphylococcus aureus, JCSC7203, VI-MRSA, Thailand
[34] = Staphylococcus aureus, LIM2, VI-MRSA, France
[35] = Staphylococcus aureus, LY-1999-01, VI-MSSA, Oman
[36] = Staphylococcus aureus, LY-1999-03, VI-MRSA, Oman
[37] = Staphylococcus aureus, MI (HIP5827), VI-MRSA, America
[38] = Staphylococcus aureus, MRSA / MSSA / NRS 76 / VISA, NRS76, VI-MSSA, America
[39] = Staphylococcus aureus, MRSA / MSSA / NRS 79 / VISA, NRS79, VI-MRSA, America
[40] = Staphylococcus aureus, MRSA / MSSA / NRS 118 / VISA, NRS118, VI-MRSA, America
[41] = Staphylococcus aureus, MRSA / MSSA / NRS 126 / VISA, NRS126, VI-MRSA, America
[42] = Staphylococcus aureus, Mu3, VI-MRSA, Japan
[43] = Staphylococcus aureus, Mu50, VI-MRSA, Japan
[44] = Staphylococcus aureus, NJ (HIP5836), VI-MRSA, America
[45] = Staphylococcus aureus, P1V44, VI-MSSA, Belgium
[46] = Staphylococcus aureus, PC, VI-MRSA, America
[47] = Staphylococcus aureus, SA MER-S6, VI-MSSA, France
[48] = Staphylococcus aureus, SA MER-S12, VI-MSSA, France
[49] = Staphylococcus aureus, SA MER-S20, VI-MSSA, France

## CC1COc2c(N3CCN(C)CC3)c(F)cc3c(=O)c(C(=O)O)cn1c23 (centres unmarked) [OFLX, ofloxacin]
[1]
  MIC: 16 µg/mL (≈ 44.3 µM)
[2]
  MIC: 32 µg/mL (≈ 88.6 µM)
[3]
  MIC: 64 µg/mL (≈ 177 µM)
[4]
  MIC: 16 µg/mL (≈ 44.3 µM)
[5]
  MIC: 16 µg/mL (≈ 44.3 µM)
[6]
  MIC: 128 µg/mL (≈ 354 µM)
[7]
  MIC: 16 µg/mL (≈ 44.3 µM)
[8]
  MIC: 64 µg/mL (≈ 177 µM)
[9]
  MIC: 64 µg/mL (≈ 177 µM)
[10]
  MIC: 64 µg/mL (≈ 177 µM)
[11]
  MIC: 64 µg/mL (≈ 177 µM)
[12]
  MIC: 64 µg/mL (≈ 177 µM)
[13]
  MIC: 16 µg/mL (≈ 44.3 µM)
[14]
  MIC: 16 µg/mL (≈ 44.3 µM)
[15]
  MIC: 16 µg/mL (≈ 44.3 µM)
[16]
  MIC: 32 µg/mL (≈ 88.6 µM)
[17]
  MIC: 16 µg/mL (≈ 44.3 µM)
[18]
  MIC: 64 µg/mL (≈ 177 µM)
[19]
  MIC: 16 µg/mL (≈ 44.3 µM)
[20]
  MIC: 64 µg/mL (≈ 177 µM)
[21]
  MIC: 32 µg/mL (≈ 88.6 µM)
[22]
  MIC: 32 µg/mL (≈ 88.6 µM)
[23]
  MIC: 64 µg/mL (≈ 177 µM)
[24]
  MIC: 64 µg/mL (≈ 177 µM)
[25]
  MIC: 64 µg/mL (≈ 177 µM)
[26]
  MIC: 32 µg/mL (≈ 88.6 µM)
[27]
  MIC: 64 µg/mL (≈ 177 µM)
[28]
  MIC: 8 µg/mL (≈ 22.1 µM)
[29]
  MIC: 32 µg/mL (≈ 88.6 µM)
[30]
  MIC: 128 µg/mL (≈ 354 µM)
[31]
  MIC: 16 µg/mL (≈ 44.3 µM)
[32]
  MIC: 64 µg/mL (≈ 177 µM)
[33]
  MIC: 16 µg/mL (≈ 44.3 µM)
[34]
  MIC: 64 µg/mL (≈ 177 µM)
[35]
  MIC: 8 µg/mL (≈ 22.1 µM)
[36]
  MIC: 8 µg/mL (≈ 22.1 µM)
[37]
  MIC: 128 µg/mL (≈ 354 µM)
[38]
  MIC: 64 µg/mL (≈ 177 µM)
[39]
  MIC: 128 µg/mL (≈ 354 µM)
[40]
  MIC: 64 µg/mL (≈ 177 µM)
[41]
  MIC: 16 µg/mL (≈ 44.3 µM)
[42]
  MIC: 16 µg/mL (≈ 44.3 µM)
[43]
  MIC: 16 µg/mL (≈ 44.3 µM)
[44]
  MIC: 64 µg/mL (≈ 177 µM)
[45]
  MIC: 4 µg/mL (≈ 11.1 µM)
[46]
  MIC: 16 µg/mL (≈ 44.3 µM)
[47]
  MIC: 1 µg/mL (≈ 2.77 µM)
[48]
  MIC: 0.5 µg/mL (≈ 1.38 µM)
[49]
  MIC: 0.25 µg/mL (≈ 0.692 µM)

## CCn1cc(C(=O)O)c(=O)c2cc(F)c(N3CCNCC3)cc21 [NFLX, norfloxacin]
[1]
  MIC: 64 µg/mL (≈ 200 µM)
[2]
  MIC: 128 µg/mL (≈ 401 µM)
[3]
  MIC: 64 µg/mL (≈ 200 µM)
[4]
  MIC: 64 µg/mL (≈ 200 µM)
[5]
  MIC: 32 µg/mL (≈ 100 µM)
[6]
  MIC: 128 µg/mL (≈ 401 µM)
[7]
  MIC: 64 µg/mL (≈ 200 µM)
[8]
  MIC: 128 µg/mL (≈ 401 µM)
[9]
  MIC: 64 µg/mL (≈ 200 µM)
[10]
  MIC: 64 µg/mL (≈ 200 µM)
[11]
  MIC: 128 µg/mL (≈ 401 µM)
[12]
  MIC: 128 µg/mL (≈ 401 µM)
[13]
  MIC: 64 µg/mL (≈ 200 µM)
[14]
  MIC: 128 µg/mL (≈ 401 µM)
[15]
  MIC: 16 µg/mL (≈ 50.1 µM)
[16]
  MIC: 128 µg/mL (≈ 401 µM)
[17]
  MIC: 64 µg/mL (≈ 200 µM)
[18]
  MIC: > 128 µg/mL
[19]
  MIC: 32 µg/mL (≈ 100 µM)
[20]
  MIC: > 128 µg/mL
[21]
  MIC: 64 µg/mL (≈ 200 µM)
[22]
  MIC: > 128 µg/mL
[23]
  MIC: > 128 µg/mL
[24]
  MIC: > 128 µg/mL
[25]
  MIC: > 128 µg/mL
[26]
  MIC: > 128 µg/mL
[27]
  MIC: 64 µg/mL (≈ 200 µM)
[28]
  MIC: 16 µg/mL (≈ 50.1 µM)
[29]
  MIC: 128 µg/mL (≈ 401 µM)
[30]
  MIC: > 128 µg/mL
[31]
  MIC: 64 µg/mL (≈ 200 µM)
[32]
  MIC: 128 µg/mL (≈ 401 µM)
[33]
  MIC: 64 µg/mL (≈ 200 µM)
[34]
  MIC: 128 µg/mL (≈ 401 µM)
[35]
  MIC: 16 µg/mL (≈ 50.1 µM)
[36]
  MIC: 64 µg/mL (≈ 200 µM)
[37]
  MIC: 128 µg/mL (≈ 401 µM)
[38]
  MIC: 128 µg/mL (≈ 401 µM)
[39]
  MIC: > 128 µg/mL
[40]
  MIC: 128 µg/mL (≈ 401 µM)
[41]
  MIC: 64 µg/mL (≈ 200 µM)
[42]
  MIC: 128 µg/mL (≈ 401 µM)
[43]
  MIC: 128 µg/mL (≈ 401 µM)
[44]
  MIC: 128 µg/mL (≈ 401 µM)
[45]
  MIC: 4 µg/mL (≈ 12.5 µM)
[46]
  MIC: 64 µg/mL (≈ 200 µM)
[47]
  MIC: 2 µg/mL (≈ 6.26 µM)
[48]
  MIC: 2 µg/mL (≈ 6.26 µM)
[49]
  MIC: 0.5 µg/mL (≈ 1.57 µM)
